From PMC7370100, “In Vitro Assessment of the Genotoxic Hazard of Novel Hydroxamic Acid- and Benzamide-Type Histone Deacetylase Inhibitors (HDACi)” (International Journal of Molecular Sciences, 2020)
Blank lines part the entries; values can stand above or below the molecule they belong to.

Tests used:
[1] = test system: VC8 hamster cells (BRCA1/2 defect); assay: Viability of DSB repair defective VC8 versus wild-type V79 cells (Alamar blue); assay type: cell-based; conditions: 72 h, Alamar blue, in words
Procedure: (§1) V79 hamster lung cells, which are recommended in the OECD toxicology guidelines for hazard identification (i.e., cytotoxicity and genotoxicity) of chemicals, were purchased from the German Collection of Microorganisms and Cell Cultures (DSMZ, Braunschweig, Germany). They were cultured in Dulbecco´s modified Eagle medium and Ham´s F12 medium (DMEM/F12) (PromoCell, Heidelberg, Germany) containing 10% fetal calf serum at 37 °C in a humidified atmosphere containing 5% CO2. VC8 hamster cells were defective in DNA double-strand break (DSB) repair by homologous recombination (HR) due to the lack of functional BRCA2 protein [69, 70]. VC8 cells were provided by B. Kaina (Institute of Toxicology, Mainz, Germany). Nucleotide excision repair defective XPA and CSB deficient cells were also provided by B. Kaina and were described before. They were grown in DMEM containing 10% fetal calf serum. Human neuroblastoma cells (IMR-32 and SH-SY5Y) were purchased from the German Collection of Microorganisms and Cell Cultures (DSMZ, Braunschweig, Germany) and were used as a model of malignant cells. They were grown in DMEM or RPMI (Roswell park memorial institute) medium, respectively, containing 10% fetal calf serum. If not stated otherwise, HDACi were added to the exponentially growing cells and analyses were performed 6 h to 72 h later.
(§2) Cell viability was determined using the Alamar blue assay, which reflected the mitochondrial activity. Viable cells were characterized by an effective mitochondrial metabolization of the non-fluorescent dye resazurin (Sigma, Steinheim, Germany) to fluorescent resorufin (excitation: 535 nm, emission: 590 nm). Relative viability in the untreated control was set to 100%. In addition, the Neutral red assay, which measures the integrity of lysosomal membranes, was used to monitor cytotoxicity. To this end, cells were incubated with the Neutral red solution (0.01%) in an atmosphere containing 5% CO2 for 90 min before they were fixed (1% formaldehyde/1% CaCl2). Afterwards, the Neutral red that was taken up by the cells was extracted (50% ethanol/1% of acetic acid, 15 min at room temperature (RT)) and absorbance (540 nm) was measured. If not stated otherwise, data are shown as the mean ± standard deviation (SD) of two to three independent experiments each performed in quadruplicate. Approximate IC50 (~IC50, see Supplementary Table S1) were calculated from the corresponding dose-response curves.

V79 cells [2] = test system: V79 cells
Procedure: The formation of DNA strand breaks and apurinic/apyrimidinic sites was monitored employing the alkaline comet assay [87], which is part of the OECD guideline of in vivo genotoxicity testings and detects DNA strand breaks (DNA single- and double-strand breaks) and alkali-labile sites [87]. Briefly, after aspiration of the medium and trypsinization, cells were mixed with 0.5% melting agarose and transferred onto agarose-coated (1.5%) slides. After lysis in alkaline buffer (pH 10) (1 h, 4 °C, light protection) and unwinding of the DNA in precooled lysis buffer (pH >13) (20 min, 4 °C, light protection), electrophoresis was performed (electric current: 300 mA constant; 1 V/cm). After neutralization in salt buffer (pH 7.5) and staining with propidium iodide solution (50 µg/mL), comets were evaluated by fluorescence microscopy. Quantification of migrated DNA was performed with TriTek Comet Score™ software Version 1.5, evaluating ≥50 cells per condition (blinded assessment). […] Fold increase in tail intensities of treated cells were calculated by relating the % DNA in tail of treated cells to that of the corresponding untreated controls, which were set to 1.0 (see Figure 2B).

V79 cells [3] = test system: V79 cells; remark: listed apart in the source
Procedure: We analyzed the frequency of micronuclei in binucleated cells, as described [86]. Briefly, logarithmically growing cells were treated with cytochalasin B (3 µg/m) for 24 h. After fixation with formaldehyde (3.7% in PBS, 20 min, RT) and washing with PBS, cells were permeabilized using precooled methanol (20 min, −20 °C.) After washing with PBS and rinsing the cell layer with PBS containing Triton X100 (PBST; 0.3% Triton X100 in PBS), DNA was stained by DAPI (4´,6-diamino-2-phenylindole) and the number of micronuclei was evaluated by fluorescence microscopy. Data shown are the mean ± SEM of three independent experiments with ≥1000 binucleated cells evaluated per experimental condition.

[4] = test system: SH-SY5Y neuroblastoma cells; assay: Neutral red assay (cytotoxicity), SH-SY5Y cells; assay type: cell-based, human
Procedure: as §1, §2

[5] = test system: IMR-32 neuroblastoma cells; assay: Neutral red assay (cytotoxicity), IMR-32 cells; assay type: cell-based, human
Procedure: as §1, §2

V79 hamster lung cells [6] = assay: Neutral red assay (cytotoxicity), V79 cells; assay type: cell-based
Procedure: as §1, §2

V79 hamster lung cells [7] = assay: Alamar blue assay (cell viability), V79 cells; assay type: cell-based; conditions: Alamar blue assay, approximate IC50
Procedure: as §1, §2

[8] = test system: SH-SY5Y neuroblastoma cells; assay: Alamar blue assay (cell viability), SH-SY5Y cells; assay type: cell-based, human
Procedure: as §1, §2

[9] = test system: IMR-32 neuroblastoma cells; assay: Alamar blue assay (cell viability), IMR-32 cells; assay type: cell-based, human
Procedure: as §1, §2

XPA-deficient cells = assay: Viability of XPA-deficient versus proficient fibroblasts (Alamar blue); assay type: cell-based, human; conditions: 72 h, in words
Procedure: Figure 7 Sensitivity of nucleotide excision repair (NER) defective cells to hydroxamic acid- and benzamide-type HDACi. Viability of wild-type human fibroblasts and fibroblasts defective in nucleotide excision repair (NER) pathways (i.e., global genome nucleotide excision repair (GG-NER) or transcription-coupled nucleotide excision repair (TC-NER)) due to a defect in Xeroderma pigmentosum group A protein (XPA) or Cockayne syndrome protein B (CSB), respectively, was analyzed 72 h after the addition of HDACi by the Alamar blue assay, as described in Methods. The DNA intrastrand cross-linking agent cisplatin was used for control. Data shown are the mean ± SD from three independent experiments (n = 3) each performed in triplicate (N = 3); ns, not significant; *, p ≤ 0.05; **, p ≤ 0.01 as compared to the corresponding untreated controls (Student´s t-test).
V79 hamster lung cells, which are recommended in the OECD toxicology guidelines for hazard identification (i.e., cytotoxicity and genotoxicity) of chemicals, were purchased from the German Collection of Microorganisms and Cell Cultures (DSMZ, Braunschweig, Germany). They were cultured in Dulbecco´s modified Eagle medium and Ham´s F12 medium (DMEM/F12) (PromoCell, Heidelberg, Germany) containing 10% fetal calf serum at 37 °C in a humidified atmosphere containing 5% CO2. VC8 hamster cells were defective in DNA double-strand break (DSB) repair by homologous recombination (HR) due to the lack of functional BRCA2 protein [69, 70]. VC8 cells were provided by B. Kaina (Institute of Toxicology, Mainz, Germany). Nucleotide excision repair defective XPA and CSB deficient cells were also provided by B. Kaina and were described before. […]
Cell viability was determined using the Alamar blue assay, which reflected the mitochondrial activity. […] Afterwards, the Neutral red that was taken up by the cells was extracted (50% ethanol/1% of acetic acid, 15 min at room temperature (RT)) and absorbance (540 nm) was measured. […] Approximate IC50 (~IC50, see Supplementary Table S1) were calculated from the corresponding dose-response curves.

[10] = 24 h, approximate IC50, read-out: IC50 - 24 h Treatment, SH-SY5Y
[11] = 72 h, approximate IC50, read-out: IC50 - 72 h Treatment, SH-SY5Y
[12] = 24 h, approximate IC50, read-out: IC50 - 24 h Treatment, IMR-32
[13] = 72 h, approximate IC50, read-out: IC50 - 72 h Treatment, IMR-32

SMILES: Nc1ccccc1NC(=O)c1ccc(CNc2nccc(-c3cccnc3)n2)cc1 [mocetinostat]
sensitivity of VC8 cells versus V79 cells [1]: hypersensitive

SMILES: C/C=C1\NC(=O)[C@H]2CSSCC/C=C/[C@H](CC(=O)N[C@H](C(C)C)C(=O)N2)OC(=O)[C@H](C(C)C)NC1=O [romidepsin]
sensitivity of VC8 cells versus V79 cells [1]: hypersensitive

SMILES: COS(C)(=O)=O [MMS, methyl methanesulfonate]
DNA strand breaks (comet assay) (V79 cells [2]): substantially increased the level of DNA strand breaks | Mean (% DNA in tail) (V79 cells [2]; hamster, 0.25 mM): 50.9 % DNA in tail | frequency of micronuclei (V79 cells [3]): substantial clastogenicity

IC50 [8, 10]: 10 µM | IC50 [8, 11]: 3 µM | IC50 [9, 12]: 12 µM | IC50 [9, 13]: 2 µM
SMILES: CCCCON(Cc1ccc(C(=O)NO)cc1)C(=O)Nc1cc(C)cc(C)c1 [MPK264]
IC50 [4, 10]: 24 µM | IC50 [4, 11]: 3 µM | IC50 [5, 12]: 16 µM | IC50 [5, 13]: 2 µM | IC50 (V79 hamster lung cells [6]; 24 h, approximate IC50, read-out: IC50 - 24 h Treatment, V79): 20 µM | IC50 (V79 hamster lung cells [6]; 72 h, approximate IC50, read-out: IC50 - 72 h Treatment, V79): 17 µM | IC50 (V79 hamster lung cells [7]; 24 h, read-out: IC50 - 24 h Treatment, V79): 22 µM | IC50 (V79 hamster lung cells [7]; 72 h, read-out: IC50 - 72 h Treatment, V79): 19 µM

SMILES: N.N.[Cl][Pt][Cl] [cisplatin]
sensitivity of XPA-deficient versus XPA proficient cells (XPA-deficient cells): XPA deficient cells are hypersensitive
